Counter-ions that a name gives are not always drawn. Like-named read-outs stand apart in the source and are kept apart here.
Legend:
[1] = system: Aβtotal produced and secreted into the medium of human neuroblastoma SKNBE2 cells; experiment: Cellular αlisa assay in SKNBE2 cells, Aβtotal; format: cell-based; conditions: for IC50: Homo sapiens, SKNBE2, 18 h, read-out: Cellular αlisa assay in SKNBE2 cells Aβtotal pIC50 (converted)
Description: (§1) Cellular αlisa Assay in SKNBE2 Cells
(§2) In two αlisa assays the levels of Aβtotal and Aβ42 produced and secreted into the medium of human neuroblastoma SKNBE2 cells are quantified. The assay is based on the human neuroblastoma SKNBE2 expressing the wild type Amyloid Precursor Protein (hAPP695). The compounds are diluted and added to these cells, incubated for 18 hours and then measurements of Aβ42 and Aβtotal are taken. Aβtotal and Aβ42 are measured by sandwich αlisa. αlisa is a sandwich assay using biotinylated antibody AbN/25 attached to streptavidin coated beads and antibody Ab4G8 or cAb42/26 conjugated acceptor beads for the detection of Aβtotal and Aβ42 respectively. In the presence of Aβtotal or Aβ42, the beads come into close proximity. The excitation of the Donor beads provokes the release of singlet oxygen molecules that triggers a cascade of energy transfer in the Acceptor beads, resulting in light emission. Light emission is measured after 1 hour incubation (excitation at […] and emission at 615 nm).
(§3) A best-fit curve is fitted by a minimum sum of squares method to the plot of % Controlmin versus compound concentration.

[2] = system: Aβ42 produced and secreted into the medium of human neuroblastoma SKNBE2 cells; experiment: Cellular αlisa assay in SKNBE2 cells, Aβ42; format: cell-based; conditions: for IC50: Homo sapiens, SKNBE2, 18 h, read-out: Cellular αlisa assay in SKNBE2 cells Aβ42 pIC50 (converted)
Description: as §1, §2, §3

[3] = target: recombinant BACE1 protein (Homo sapiens, UniProt P56817); experiment: Biochemical FRET based assay; conditions: recombinant BACE1 1 μg/ml, 120 min, pH 5.0; for IC50: read-out: Biochemical FRET based assay pIC50 (converted)
Text: Biochemical FRET Based Assay
This assay is a Fluorescence Resonance Energy Transfer Assay (FRET) based assay. The substrate for this assay is an APP derived 13 amino acids peptide that contains the ‘Swedish’ Lys-Met/Asn-Leu mutation of the amyloid precursor protein (APP) β-secretase cleavage site. This substrate also contains two fluorophores: (7-methoxycoumarin-4-yl)acetic acid (Mca) is a fluorescent donor with excitation wavelength at 320 nm and emission at 405 nm and 2,4-Dinitrophenyl (Dnp) is a proprietary quencher acceptor. […] Upon cleavage by BACE1, the fluorophore Mca is separated from the quenching group Dnp, restoring the full fluorescence yield of the donor. The increase in fluorescence is linearly related to the rate of proteolysis (Koike H et al. J. Biochem. 1999, 126, 235-242). Briefly in a 384-well format recombinant BACE1 protein in a final concentration of 1 μg/ml is incubated for 120 min at room temperature with 10 μm substrate in incubation buffer (40 mM Citrate buffer pH 5.0, 0.04% PEG, 4% DMSO) in the absence or presence of compound. Next the amount of proteolysis is directly measured by fluorescence measurement at T=0 and T=120 (excitation at 320 nm and emission at 405 nm).

[4] = SKNBE2 cells expressing hAPP695, 18 hours incubation

recombinant BACE1 protein, sequence (P56817 46-501): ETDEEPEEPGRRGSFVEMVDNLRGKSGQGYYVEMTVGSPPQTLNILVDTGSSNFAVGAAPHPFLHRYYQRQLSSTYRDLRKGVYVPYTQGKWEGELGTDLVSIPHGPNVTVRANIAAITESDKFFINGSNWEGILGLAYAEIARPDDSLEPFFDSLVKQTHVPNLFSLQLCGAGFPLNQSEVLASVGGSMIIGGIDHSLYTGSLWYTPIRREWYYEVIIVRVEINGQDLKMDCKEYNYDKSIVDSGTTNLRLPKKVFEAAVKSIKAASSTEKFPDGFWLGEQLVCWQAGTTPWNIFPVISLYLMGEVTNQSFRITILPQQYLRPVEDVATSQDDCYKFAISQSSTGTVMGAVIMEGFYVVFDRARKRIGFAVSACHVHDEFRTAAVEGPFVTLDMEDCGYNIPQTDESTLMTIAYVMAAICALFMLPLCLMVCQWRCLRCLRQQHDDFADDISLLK

Row | SMILES | Cellular αlisa assay in SKNBE2 cells Aβtotal pIC50 [1, 4] | Cellular αlisa assay in SKNBE2 cells Aβ42 pIC50 [2, 4] | IC50 [3] [nM] | Biochemical FRET based assay pIC50 [3] | IC50 [1, 4] [nM] | IC50 [2, 4] [nM] | IC50 [1] [nM] | IC50 [2] [nM]
1 | COc1cnc(C(=O)Nc2ccc(F)c(C3(C(F)F)Cn4nccc4C(N)=N3)c2)cn1 (single isomer, unassigned) [Compound 19, (S*)-5-methoxy-pyrazine-2-carboxylic acid [3-(4-amino-6-difluoromethyl-6,7-dihydro-pyrazolo[1,5-a]pyrazin-6-yl)-4-fluoro-phenyl]-amide] | 5.13 | 5.28 | 9770 | – | – | – | – | –
2 | COc1cnc(C(=O)Nc2cccc(C3(C)Cn4nc(C(F)(F)F)cc4C(N)=N3)c2)cn1 (single isomer, unassigned) [Compound 31] | 5.61 | 5.58 | – | 4.97 | – | – | – | –
3 | C[C@@]1(c2cccc(-c3cncc(Cl)c3)c2)Cn2nccc2C(N)=N1 [Compound 1, (R)-6-[3-(5-chloro-pyridin-3-yl)-phenyl]-6-methyl-6,7-dihydro-pyrazolo[1,5-a]pyrazin-4-ylamine trifluoroacetate salt] | – | – | 525 | – | – | – | 100 | 93.3
4 | COc1cnc(C(=O)Nc2ccc(F)c([C@]3(C)Cn4ncc(F)c4C(N)=N3)c2)cn1 [Compound 13, (R)-5-methoxy-pyrazine-2-carboxylic acid [3-(4-amino-3-fluoro-6-methyl-6,7-dihydro-pyrazolo[1,5-a]pyrazin-6-yl)-4-fluoro-phenyl]-amide] | – | – | 72.4 | – | 5.5 | 6.76 | – | –
5 | Cc1nc(C(=O)Nc2ccc(F)c(C3(C)Cn4ncc(F)c4C(N)=N3)c2)c(C(F)(F)F)o1 (stereo not drawn) [Compound 35] | 7.30 | 7.33 | – | 6.91 | – | – | – | –
6 | Cc1nc(C(=O)Nc2ccc(F)c(C3(C)Cn4ncc(F)c4C(N)=N3)c2)c(C)o1 (stereo not drawn) [Compound 36] | 7.53 | 7.56 | – | 7.04 | – | – | – | –
7 | COc1cnc(C(=O)Nc2ccc(F)c(C3(C)Cn4ncc(Cl)c4C(N)=N3)c2)cn1 (stereo not drawn) [Compound 37] | 6.07 | 6.03 | – | 5.86 | – | – | – | –

Now from value to compound, other results behind:

Row | Cellular αlisa assay in SKNBE2 cells Aβtotal pIC50 [1, 4] | Cellular αlisa assay in SKNBE2 cells Aβ42 pIC50 [2, 4] | IC50 [3] [nM] | Biochemical FRET based assay pIC50 [3] | IC50 [1, 4] [nM] | IC50 [2, 4] [nM] | SMILES | IC50 [1] [nM] | IC50 [2] [nM]
8 | <5 | <5 | > 30200 | – | – | – | NC1=NC(c2cc(NC(=O)c3ccc(F)cn3)ccc2F)(C(F)F)Cn2nccc21 (single isomer, unassigned) [Compound 21, (S*)-5-fluoro-pyridine-2-carboxylic acid [3-(4-amino-6-difluoromethyl-6,7-dihydro-pyrazolo[1,5-a]pyrazin-6-yl)-4-fluoro-phenyl]-amide] | – | –
9 | 7.21 | 7.17 | 25.7 | – | – | – | NC1=NC(c2cc(NC(=O)c3ccc(F)cn3)ccc2F)(C(F)F)Cn2nccc21 (single isomer, unassigned) [Compound 22, (R*)-5-fluoro-pyridine-2-carboxylic acid [3-(4-amino-6-difluoromethyl-6,7-dihydro-pyrazolo[1,5-a]pyrazin-6-yl)-4-fluoro-phenyl]-amide] | – | –
10 | – | – | 49 | – | 1.45 | 1.48 | C[C@@]1(c2cc(NC(=O)c3ccc(C#N)cn3)ccc2F)Cn2nc(C#N)cc2C(N)=N1 [Compound 26, (R)-5-cyano-pyridine-2-carboxylic acid [3-(4-amino-2-cyano-6-methyl-6,7-dihydro-pyrazolo[1,5-a]pyrazin-6-yl)-4-fluoro-phenyl]-amide] | – | –
11 | 7.78 | 7.83 | – | 7.23 | – | – | Cc1nc(C(=O)Nc2ccc(F)c(C3(C)Cn4ncc(F)c4C(N)=N3)c2)co1 (stereo not drawn) [Compound 34] | – | –
12 | 6.22 | 6.16 | – | 6.03 | – | – | CC1(c2cc(NC(=O)c3ccc(F)cn3)ccc2F)Cn2ncc(Cl)c2C(N)=N1 (stereo not drawn) [Compound 38] | – | –
13 | 8.59 | 8.61 | – | 7.39 | – | – | CC1(c2cc(NC(=O)c3ccc(Cl)cn3)ccc2F)Cn2nc(C(F)F)cc2C(N)=N1 (stereo not drawn) [Compound 39] | – | –
14 | 8.37 | 8.42 | – | 7.28 | – | – | CC1(c2cc(NC(=O)c3ccn(C(F)F)n3)ccc2F)Cn2nc(C(F)F)cc2C(N)=N1 (stereo not drawn) [Compound 40] | – | –
15 | 7.99 | 8.02 | – | 7.12 | – | – | Cc1nn2c(c1F)C(N)=NC(C)(c1cc(NC(=O)c3ccn(C(F)F)n3)ccc1F)C2 (stereo not drawn) [Compound 42] | – | –
16 | 8.70 | 8.72 | – | 7.53 | – | – | Cc1nc(C(=O)Nc2ccc(F)c(C3(C)Cn4nc(C#N)cc4C(N)=N3)c2)co1 (stereo not drawn) [Compound 43] | – | –

— patent US9346811B2, “6,7-dihydro-pyrazolo[1,5-a]pyrazin-4-ylamine derivatives useful as inhibitors of beta-secretase (BACE)” (JANSSEN PHARMACEUTICA NV, priority 2011, dated 2016)
